Results from patent EP0168309A1, “Isoxazoloquinolinone derivatives, process and intermediates for their preparation, use as medicaments and compositions containing them” (ROUSSEL-UCLAF, priority 1984, dated 1986).

Experiments:
souris = assay: Acute toxicity, oral administration in mice (DL0); type: in vivo; conditions: maximal dose causing no mortality in 8 days, mouse
Source text: On a évalué les doses létales DLO des différents composés testés après administration par voie orale chez la souris.
On appelle DLO la dose maximale ne provoquant aucune mortalité en 8 jours.

[1] = molecular target: récepteurs des benzodiazépines; assay: Affinity for benzodiazepine receptors (3H diazepam binding, rat cortex membranes); set-up: species or system rats; conditions: concentration inhibiting 50 % of specific binding of 3H diazepam (10^-9M), 30 minutes at 0°C, read-out: C. I. 50 (the source's name)
Experimental: La technique est inspirée de celle de Möhler et Okada : Science, Vol 198 p.849-851 (1977).
On homogénéise au vingtième (poids/volume) dans le sucrose 0,32 M, les cortex prélevés sur des cerveaux de rats mâles pesant 150 g en moyenne. Après centrifugation de l'homogénat à 1000 g pendant 10 minutes à 0°C, le surnageant est centrifugé à 30 000 g pendant 20 minutes à 4°C. Le culot est mis en suspension dans 20 volumes de tampon Tris HCl 50mM pH 7,4 et centrigué à 30 000 g pendant 20 minutes à 4°C. Le nouveau culot obtenu est mis en suspension dans 50 ml de tampon Krebs Tris HCl pH 7,4.
On fait ensuite incuber pendant 30 minutes à 0°C, 2 ml de suspension en présence de 3H diazepam à la concentration 10^-9M : • i) seule, • ii) avec des concentrations croissantes du produit à tester ou, • iii) pour déterminer la fixation non spécifique, avec du diazepam non radioactif à la concentration 10^-6M.
Les suspensions incubées sont filtrées sur Whatman GF/C et les filtres sont lavés par deux fois 5 ml de tampon Krebs Tris HCl pH 7,4 à 0°C.
La radioactivité des filtres est mesurées par scintillation liquide.
L'activité du produit est exprimée en C. I. 50 : concentration inhibant 50 % de la liaison spécifique de ^3H diazepam.

[2] = tested on: taux sérique de corticostérone; assay: Action on serum corticosterone level after noise stress; type: in vivo; conditions: Rattus norvegicus; dose reducing by 50% the increase of serum corticosterone; oral route, 1 hour before stress; rats; read-out: DE50 (the source's name)
Source text: Des lots de 5 rats sont constitués la veille de l'essai et placés dans un pièce au calme. Les composés sont administrés par voie orale le lendemain entre 8 et 9 heures du matin. Une heure après, le stress est appliqué : il consiste à changer les animaux de cage, à les placer dans une pièce où un poste de radio fonctionne bruyamment (90 décibels), puis 1/2 heure plus tard, à leur faire une piqûre intrapéritonéale sans injection. Dix minutes après celle-ci, les rats sont anesthésiés a l'halothane et des échantillons de sang sont prélevés par décapitation. Les taux de corticostérone sérique sont alors déterminés.
Les résultats sont exprimés en DE50, c'est-à-dire en dose de composé testé qui réduit de 50% l'augmentation du taux de corticostérone sérique chez les animaux traités par rapport aux animaux témoins.

## COc1ccc2c(c1)ncc1c(=O)n(-c3ccccc3)oc12 [Exemple 3, 7-méthoxy 2-phénylisoxazolo (4,5-c) quinoléin-3-(2H)-one]
souris
  DL0: ≥ 200 mg/kg

## O=c1c2cnc3ccc(F)cc3c2on1-c1ccccc1 [Exemple 2, 8-fluoro 2-phénylisoxazolo (4,5-c) quinoléin-3-(2H)-one]
[1]
  IC50: 400 nM
[2]
  ED50: < 50 mg/kg
souris
  DL0: ≥ 400 mg/kg

## COc1ccc2ncc3c(=O)n(-c4ccccc4)oc3c2c1 [Exemple 4, 8-méthoxy 2-phényl isoxazolo (4,5-c) quinoléin-3-(2H)-one]
[1]
  IC50: 2460 nM
[2]
  ED50: < 100 mg/kg
souris
  DL0: 200 mg/kg

## O=c1c2cnc3ccc(C(F)(F)F)cc3c2on1-c1ccccc1 [Exemple 5, 8-trifluorométhyl 2-phényl isoxazolo (4,5-c) quinoléin-3-(2H)-one]
souris
  DL0: ≥ 200 mg/kg

## O=c1c2cnc3ccc(Cl)cc3c2on1-c1ccccc1 [Exemple 7, 8-chloro 2-phényl isoxazolo (4,5-c) quinoléin-3-(2H)-one]
souris
  DL0: ≥ 100 mg/kg

## O=c1c2cnc3ccccc3c2on1-c1ccccc1 [Exemple 1, 2-phényl isoxazolo (4,5-c) quinoléin-3 (2H) one]
[1]
  IC50: 120 nM
souris
  DL0: ≥ 400 mg/kg
